Columns and labels:
[1] = system: liver mitochondrial citrate exchange; assay: Enzymatic studies in vitro: liver mitochondrial citrate exchange; format: biochemical; details: at all concentrations tested
Actyl CoA carboxylase = assay: Enzymatic studies in vitro: acetyl CoA carboxylase; format: biochemical
[2] = biological target: T1, ATP dependent citrate lyase (Mus musculus, UniProt Q91V92); assay: Enzyme activity after in vivo dosing: ATP dependent citrate lyase; details: 16 mg/kg/day
T1 construct: from tissue
T1 sequence (Q91V92 1-1091): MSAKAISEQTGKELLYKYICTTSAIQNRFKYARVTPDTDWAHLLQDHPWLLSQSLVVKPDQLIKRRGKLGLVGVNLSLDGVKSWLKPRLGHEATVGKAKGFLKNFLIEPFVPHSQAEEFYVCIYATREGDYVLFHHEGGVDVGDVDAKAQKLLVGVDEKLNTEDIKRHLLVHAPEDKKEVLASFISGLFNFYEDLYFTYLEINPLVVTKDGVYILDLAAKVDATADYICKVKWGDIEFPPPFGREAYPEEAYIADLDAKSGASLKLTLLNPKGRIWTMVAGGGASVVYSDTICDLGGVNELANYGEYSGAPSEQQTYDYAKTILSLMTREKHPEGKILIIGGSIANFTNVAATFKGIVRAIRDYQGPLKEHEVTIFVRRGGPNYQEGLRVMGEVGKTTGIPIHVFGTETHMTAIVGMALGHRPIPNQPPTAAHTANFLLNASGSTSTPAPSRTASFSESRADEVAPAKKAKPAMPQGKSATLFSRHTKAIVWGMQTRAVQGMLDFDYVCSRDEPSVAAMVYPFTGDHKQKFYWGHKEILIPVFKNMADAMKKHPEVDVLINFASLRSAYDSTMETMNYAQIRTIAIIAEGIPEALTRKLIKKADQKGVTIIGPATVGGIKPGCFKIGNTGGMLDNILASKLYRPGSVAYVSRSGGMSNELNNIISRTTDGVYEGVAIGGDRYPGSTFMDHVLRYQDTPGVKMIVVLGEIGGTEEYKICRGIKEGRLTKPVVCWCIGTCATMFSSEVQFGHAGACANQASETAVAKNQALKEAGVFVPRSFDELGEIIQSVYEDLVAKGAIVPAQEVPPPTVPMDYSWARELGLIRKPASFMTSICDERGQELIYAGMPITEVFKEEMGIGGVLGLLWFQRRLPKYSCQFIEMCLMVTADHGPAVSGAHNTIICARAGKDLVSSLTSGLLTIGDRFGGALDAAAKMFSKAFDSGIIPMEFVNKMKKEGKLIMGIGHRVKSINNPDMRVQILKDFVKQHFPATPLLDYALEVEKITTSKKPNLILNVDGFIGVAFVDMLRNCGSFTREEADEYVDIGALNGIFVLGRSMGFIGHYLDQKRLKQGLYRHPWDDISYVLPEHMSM

[3] = biological target: T2, Cholesterol 7α hydroxylase (Mus musculus, UniProt Q64505); assay: Enzyme activity after in vivo dosing: cholesterol 7α hydroxylase; details: 16 mg/kg
T2 construct: from tissue; host or cells: liver (inferred; the enzyme is liver-specific)
T2 sequence (Q64505 whole entry): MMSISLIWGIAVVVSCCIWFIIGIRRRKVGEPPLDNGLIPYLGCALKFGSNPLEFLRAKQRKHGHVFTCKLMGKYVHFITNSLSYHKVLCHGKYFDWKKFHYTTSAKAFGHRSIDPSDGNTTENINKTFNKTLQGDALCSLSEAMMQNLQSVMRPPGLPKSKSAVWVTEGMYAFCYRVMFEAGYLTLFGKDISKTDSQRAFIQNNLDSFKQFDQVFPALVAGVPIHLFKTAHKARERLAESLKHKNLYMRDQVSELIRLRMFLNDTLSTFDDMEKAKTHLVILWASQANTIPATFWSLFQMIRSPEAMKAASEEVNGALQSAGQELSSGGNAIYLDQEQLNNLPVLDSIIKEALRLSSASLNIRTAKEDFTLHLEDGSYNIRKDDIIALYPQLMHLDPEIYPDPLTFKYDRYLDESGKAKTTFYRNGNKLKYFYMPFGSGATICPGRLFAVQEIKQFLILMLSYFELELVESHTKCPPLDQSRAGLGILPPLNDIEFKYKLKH

[4] = system: hyperlipidemic induced mice; assay: Hypolipidemic activity in diet-induced hyperlipidemic mice; format: in vivo; details: 8 mg./kg./day i.p., 12 days
Protocol: The same compound was tested in mice that had been placed on a commercial diet to produce a "hyperlipidemic" state. […] Serum cholesterol and triglyceride levels were measured at that time. A similar lowering of cholesterol and triglyceride levels in the hyperlipidemic-induced mice was observed.

male CF1 mice = assay: Hypolipidemic activity in CF1 mice, intraperitoneal dosing (serum cholesterol and triglyceride); format: in vivo; details: Table III, 4 mg/kg/day i.p., N = 6
[5] = system: Hepatic lipoprotein lipase; assay: Enzymatic studies in vitro: hepatic lipoprotein lipase induced by heparin; format: biochemical
[6] = system: phosphatidate phosphohydrolase; assay: Enzyme activity after in vivo dosing: phosphatidate phosphohydrolase; details: 16 mg/kg/day
acetyl CoA synthetase [7] = biological target: T3, acetyl CoA synthetase (Mus musculus, UniProt Q9QXG4); assay: Enzymatic studies in vitro: acetyl CoA synthetase; format: biochemical; details: at all concentrations tested
T3 construct: from tissue
T3 sequence (Q9QXG4 whole entry): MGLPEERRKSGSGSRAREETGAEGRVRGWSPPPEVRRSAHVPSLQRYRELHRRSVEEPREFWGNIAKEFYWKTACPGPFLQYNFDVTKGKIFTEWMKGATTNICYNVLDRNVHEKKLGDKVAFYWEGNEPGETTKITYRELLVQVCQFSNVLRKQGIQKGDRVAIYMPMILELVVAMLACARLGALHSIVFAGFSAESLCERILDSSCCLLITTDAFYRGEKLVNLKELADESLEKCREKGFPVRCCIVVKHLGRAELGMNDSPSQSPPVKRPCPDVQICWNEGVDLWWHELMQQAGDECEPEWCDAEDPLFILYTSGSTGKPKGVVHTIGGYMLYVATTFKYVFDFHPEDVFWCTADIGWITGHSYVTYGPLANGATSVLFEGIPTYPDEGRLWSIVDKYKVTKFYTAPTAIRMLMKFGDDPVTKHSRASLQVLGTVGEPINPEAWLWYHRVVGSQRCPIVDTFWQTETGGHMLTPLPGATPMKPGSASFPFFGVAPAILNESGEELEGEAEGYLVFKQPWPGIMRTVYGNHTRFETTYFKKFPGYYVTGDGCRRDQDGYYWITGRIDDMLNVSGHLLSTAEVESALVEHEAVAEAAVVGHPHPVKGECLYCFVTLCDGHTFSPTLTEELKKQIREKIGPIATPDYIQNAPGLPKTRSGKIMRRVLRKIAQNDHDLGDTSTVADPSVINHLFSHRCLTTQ

[8] = system: sn-Glycerol-3-phosphate acyl transferase; assay: Enzyme activity after in vivo dosing: sn-glycerol-3-phosphate acyl transferase; details: 16 mg/kg/day
acetyl CoA synthetase [9] = biological target: T3, acetyl CoA synthetase; assay: Enzyme activity after in vivo dosing: acetyl CoA synthetase; details: 16 mg/kg/day
HMG CoA reductase [10] = assay: Enzymatic studies in vitro: cholesterol synthesis (HMG CoA reductase); format: biochemical; details: 200 μM
HMG CoA reductase [11] = biological target: T4, HMG CoA reductase (Mus musculus, UniProt Q01237); assay: Enzyme activity after in vivo dosing: HMG CoA reductase; details: maximal reduction at 4 mg/kg/day
T4 construct: from tissue
T4 sequence (Q01237 1-887): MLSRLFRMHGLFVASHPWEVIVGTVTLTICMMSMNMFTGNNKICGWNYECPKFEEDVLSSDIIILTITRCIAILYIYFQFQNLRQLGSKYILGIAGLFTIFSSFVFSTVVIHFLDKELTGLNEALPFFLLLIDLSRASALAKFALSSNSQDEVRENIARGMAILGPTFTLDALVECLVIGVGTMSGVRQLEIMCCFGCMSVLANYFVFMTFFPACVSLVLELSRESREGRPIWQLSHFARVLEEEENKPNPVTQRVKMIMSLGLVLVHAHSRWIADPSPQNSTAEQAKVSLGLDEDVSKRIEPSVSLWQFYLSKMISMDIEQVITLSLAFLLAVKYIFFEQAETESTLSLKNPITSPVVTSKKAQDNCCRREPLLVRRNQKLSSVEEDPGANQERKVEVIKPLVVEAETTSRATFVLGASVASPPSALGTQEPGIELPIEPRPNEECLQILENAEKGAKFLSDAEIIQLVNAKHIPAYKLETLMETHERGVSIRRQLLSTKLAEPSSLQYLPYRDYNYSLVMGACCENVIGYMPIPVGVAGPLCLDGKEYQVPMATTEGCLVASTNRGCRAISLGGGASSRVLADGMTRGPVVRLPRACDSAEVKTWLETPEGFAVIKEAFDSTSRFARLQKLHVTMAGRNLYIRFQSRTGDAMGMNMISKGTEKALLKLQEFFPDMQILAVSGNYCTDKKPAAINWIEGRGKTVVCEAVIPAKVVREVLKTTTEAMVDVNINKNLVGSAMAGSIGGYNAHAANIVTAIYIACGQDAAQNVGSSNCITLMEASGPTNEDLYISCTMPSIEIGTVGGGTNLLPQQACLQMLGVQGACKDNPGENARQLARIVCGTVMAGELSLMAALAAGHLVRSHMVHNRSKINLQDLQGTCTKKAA

Cholesterol 7α hydrolase = biological target: T5, Cholesterol 7α hydrolase (Mus musculus, UniProt Q64505); assay: Enzymatic studies in vitro: cholesterol 7α hydrolase; format: biochemical
T5 construct: from tissue; host or cells: liver (inferred; the enzyme is liver-specific)
T5 sequence (Q64505 whole entry): as the sequence (Q64505 whole entry) above

## [BH3-][N+](C)(C)CCCCCCCCCCCCCCCCCC [I, N-n-Octadecyl-N,N-Dimethylamine Borane]
[1]
  reduction of liver mitochondrial citrate exchange: more than 50%
Actyl CoA carboxylase
  effect on Actyl CoA carboxylase activity: unaffected
[2]
  reduction of ATP dependent citrate lyase activity: 62%
[3]
  reduction of cholesterol 7α hydroxylase activity: 35%
[4]; hyperlipidemic induced mice (elevated to 375 mg %, control 128 mg %)
  serum cholesterol level after treatment: 180 mg %
[4]; hyperlipidemic induced mice
  reduction of serum cholesterol level: 52%
[4]; hyperlipidemic mice (elevated to 367 mg/dl, normal 137 mg/dl)
  serum triglyceride level after treatment: 187 mg %
[4]; hyperlipidemic mice
  reduction of serum triglyceride level: 49%
Male CF1 mice
  Serum Triglyceride Day 9 (X ± SD): 80 ± 9% of Control
[5]; 100 μM
  reduction of hepatic lipoprotein lipase activity: 23%
[5]; 200 μM
  reduction of hepatic lipoprotein lipase activity: 23%
[6]
  reduction of phosphatidate phosphohydrolase activity: 40%
Acetyl CoA synthetase [7]
  reduction of acetyl CoA synthetase activity: more than 50%
[8]
  reduction of sn-glycerol-3-phosphate acyl transferase activity: 33%
Acetyl CoA synthetase [9]
  reduction of acetyl CoA synthetase: 32%
HMG CoA reductase [10]
  reduction of cholesterol synthesis (HMG CoA reductase): 38%
HMG CoA reductase [11]
  reduction of HMG CoA reductase activity: 34%
Cholesterol 7α hydrolase
  effect on cholesterol 7α hydrolase activity: unaffected

Source: US4740504A, “Antihyperlipidemic amine boranes” (United States Borax & Chemical Corp., priority 1987, dated 1988)
